Data taken from US20260184725A1, “CYCLIC 2-AMINOPYRIMIDINE COMPOUND AND PHARMACEUTICAL COMPOSITION AND USE THEREOF” (SHANGHAI INSTITUTE OF ORGANIC CHEMISTRY, CHINESE ACADEMY OF …, priority 2023, published 2026).

Tests used:
[1] = target: T1, EGFR^19del/T790M/C797S (Homo sapiens, UniProt P00533, T790M/C797S, form not given); assay: ELISA kinase activity inhibition, EGFR 19del/T790M/C797S; format: biochemical; conditions: ATP 5 μM, read-out: The average IC50 value (nM) for inhibiting the activity of different tyrosine kinases, EGFR^19del/T790M/C797S
T1 construct: fused on or other part: Probably a GST tag on the cytoplasmic fragment, as in the vendor's product
Procedure: (§1) EGFR (WT) is a wild-type epidermal growth factor receptor.
(§2) Enzyme-Linked Immunosorbent Assay (ELISA) was used to detect the inhibitory effect of compounds on kinase activity.
(§3) The main experimental steps were as follows: Enzyme reaction substrate Poly (Glu, Tyr)4:1 was diluted with potassium free PBS (10 mM sodium phosphate buffer, 150 mM NaCl, pH 7.2-7.4) to 20 μg/mL, and reacted at 37° C. for 12 hours to 16 hours to coat the enzyme-linked immunosorbent assay plate. ATP solution (final concentration 5 μM) diluted with reaction buffer (50 mM HEPES pH 7.4, 50 mM MgCl2, 0.5 mM MnCl2, 0.2 mM Na3VO4, 1 mM DTT) was added to each well, followed by the test compound or solvent control, then the kinase reaction was initiated and the plate was shaken at 37° C. for 1 hour. The plate was washed three times with T-PBS, then added antibody PY99. The plate was shaken at 37° C. for 0.5 hours. After washing the plate with T-PBS, added horseradish peroxidase-labeled IgG and shaken at 37° C. for 0.5 hours. After washing the plate again, added 2 mg/mL of OPD colorimetric solution and incubated at 25° C. in the dark for 1 minutes to 10 minutes. […] The IC50 values were obtained from the inhibition curve analysis.

[2] = target: BaF3-EGFR (L858R/T790M/C797S) (Homo sapiens, UniProt P00533, T790M/C797S/L858R, cells depend on it); assay: CCK-8 cell proliferation, BaF3-EGFR(L858R/T790M/C797S); format: cell-based; conditions: CCK-8, 72 hours; read-out: Average value of IC50 of inhibition against EGFR-mutant cells growth, BaF3-EGFR (L858R/T790M/C797S)
Procedure: (§4) Ba/F3 cells were obtained from Deutsche Sammlung von Mikroorganismen und Zellkulturen GmbH (DSMZ). […] All cells used in the study were verified by short tandem repeat (STR) analysis conducted by Genesky.
(§5) Tumor cell viability was assessed using a CCK-8 cell counting kit (A311-01/02, Vazyme, Nanjing, China). Cells were seeded at a density of 3000 cells per well into 96-well plates and cultured overnight. Subsequently, the cells were treated with compounds of different concentrations and incubated for 72 hours. After 72 hours, 10 μL of CCK-8 solution was added to each well. The plates were then returned to the incubator and incubated at 37° C. for 2 hours. The absorbance was measured at 450 nm using a microplate reader. A calibration curve was constructed using data obtained from wells containing known numbers of viable cells.

[3] = target: BaF3-EGFR (19del/T790M/C797S) (Homo sapiens, UniProt P00533, T790M/C797S, cells depend on it, form not given); assay: CCK-8 cell proliferation, BaF3-EGFR(19del/T790M/C797S); format: cell-based; conditions: CCK-8, 72 hours; read-out: Average value of IC50 of inhibition against EGFR-mutant cells growth, BaF3-EGFR (19del/T790M/C797S)
Procedure: as §4, §5

[4] = target: EGFR^L858R/T790M/C797S (Homo sapiens, UniProt P00533, C797S/L858R/T790M); assay: ELISA kinase activity inhibition, EGFR L858R/T790M/C797S; format: biochemical; conditions: ATP 5 μM, read-out: The average IC50 value (nM) for inhibiting the activity of different tyrosine kinases, EGFR^L858R/T790M/C797S
Procedure: as §2, §3

[5] = system: BaF3 parent cell; assay: CCK-8 cell proliferation, BaF3 parent cell; format: cell-based; conditions: Mus musculus, BaF3; CCK-8, 72 hours; read-out: Average value of IC50 of inhibition against cells growth, BaF3 parent cell
Description: (§6) Ba/F3 cells were obtained from Deutsche Sammlung von Mikroorganismen und Zellkulturen GmbH (DSMZ). Ba/F3 cells stably expressing EGFR19del/T790M/C797S or EGFR L858R/T790M/C797S were generated by infecting parental cells with corresponding retroviruses. PC-9-OR was a tumor cell model obtained by simultaneously knocking in T790M and C797S mutations into 19del-activating mutation-dependent PC-9 tumor cells using CRISPR technology. This model, which proliferated dependent on EGFR19del/T790M/C797S resistance mutation, was used to evaluate the inhibitory activity of compounds against EGFR19del/T790M/C797S resistance mutants (Cancer Science. 2022; 113:709-720). All cells used in the study were verified by short tandem repeat (STR) analysis conducted by Genesky.
as §5

[6] = target: T2, EGFR^WT (Homo sapiens, UniProt P00533); assay: ELISA kinase activity inhibition, wild-type EGFR; format: biochemical; conditions: ATP 5 μM, read-out: The average IC50 value (nM) for inhibiting the activity of different tyrosine kinases, EGFR^WT
T2 construct: purchased Eurofins
Procedure: as §1, §2, §3

[7] = system: PC-9-OR (19del/T790M/C797S); assay: CCK-8 cell proliferation, PC-9-OR; format: cell-based; conditions: PC9-OR; CCK-8, 72 hours; read-out: Average value of IC50 of inhibition against EGFR-mutant cells growth, PC-9-OR (19del/T790M/C797S)
Description: as §6, §5

[8] = Pharmacokinetic parameters in rats; format: in vivo; conditions: male, Sprague-Dawley, plasma, rat
Procedure: Sprague-Dawley rats (males, 3 per group), weighing 180 g to 220 g, were administered test compounds intravenously and orally at doses of 1 mg/kg and 5 mg/kg, respectively. The compounds were dissolved in a mixed solvent (5% DMSO+10% Solutol+85% PBS) for intravenous injection. 0.5% CMC-Na solution (800 cps to 1200 cps) was used as a suspension agent for oral administration. At designated time points, 0.2 mL of blood samples were collected via the jugular vein and placed into tubes containing K2-EDTA, stored on ice, and then centrifuged. Sampling intervals for the injection group were 0.083, 0.25, 0.5, 1, 2, 4, 8, and 24 hours, while for the oral group, sampling intervals were 0.25, 0.5, 1, 2, 4, 6, 8, and 24 hours. The blood samples were centrifuged at 6800 g for 6 minutes at 2° C. to 8° C. within 1 hour after collection and stored frozen at approximately −80° C. Subsequently, 200 μL of MeOH was used to precipitate 20 μL of plasma samples containing 100 ng/mL IS. The mixture was vortexed for 1 minute and then centrifuged at 18000 g for 7 minutes. 200 μL of the supernatant was transferred to a 96-well plate, and 1 μL of the supernatant sample was injected for LC-MS/MS analysis. Finally, Phoenix WinNonlin7.0 software was used to calculate the pharmacokinetic (PK) parameters.

T1 sequence (P00533 with tags, fused parts or gaps DEL746-750/T790M/C797S, form open): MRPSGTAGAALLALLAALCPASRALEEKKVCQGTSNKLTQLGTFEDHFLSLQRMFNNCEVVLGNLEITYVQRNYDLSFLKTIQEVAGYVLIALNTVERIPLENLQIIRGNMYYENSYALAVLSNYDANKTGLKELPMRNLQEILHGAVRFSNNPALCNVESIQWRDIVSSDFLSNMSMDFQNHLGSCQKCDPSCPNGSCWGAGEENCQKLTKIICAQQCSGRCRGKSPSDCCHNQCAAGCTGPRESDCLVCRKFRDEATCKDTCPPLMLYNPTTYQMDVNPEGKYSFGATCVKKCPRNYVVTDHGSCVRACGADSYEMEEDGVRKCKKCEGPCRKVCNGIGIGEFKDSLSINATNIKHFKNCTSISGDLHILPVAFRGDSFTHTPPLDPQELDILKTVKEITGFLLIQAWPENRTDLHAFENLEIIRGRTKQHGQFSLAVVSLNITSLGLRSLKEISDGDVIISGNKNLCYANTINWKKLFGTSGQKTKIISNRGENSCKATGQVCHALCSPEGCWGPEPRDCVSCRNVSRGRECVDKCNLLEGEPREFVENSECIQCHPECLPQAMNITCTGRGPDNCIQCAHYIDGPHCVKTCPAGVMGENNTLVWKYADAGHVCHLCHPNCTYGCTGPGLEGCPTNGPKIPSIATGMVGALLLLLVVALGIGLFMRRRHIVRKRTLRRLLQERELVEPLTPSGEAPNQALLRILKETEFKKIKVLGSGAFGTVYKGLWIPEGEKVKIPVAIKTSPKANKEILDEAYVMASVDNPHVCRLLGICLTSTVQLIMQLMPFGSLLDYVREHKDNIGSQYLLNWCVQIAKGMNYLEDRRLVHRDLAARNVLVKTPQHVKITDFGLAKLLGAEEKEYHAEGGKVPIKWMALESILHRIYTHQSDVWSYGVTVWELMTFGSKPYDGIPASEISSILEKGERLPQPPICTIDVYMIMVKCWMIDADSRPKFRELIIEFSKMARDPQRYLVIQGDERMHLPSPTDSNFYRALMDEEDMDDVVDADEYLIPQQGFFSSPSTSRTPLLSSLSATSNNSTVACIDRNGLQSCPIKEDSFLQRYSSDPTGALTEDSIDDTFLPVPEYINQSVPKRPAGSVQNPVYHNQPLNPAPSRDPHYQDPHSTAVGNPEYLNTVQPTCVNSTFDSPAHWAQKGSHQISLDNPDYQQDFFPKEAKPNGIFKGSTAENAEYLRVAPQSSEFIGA
BaF3-EGFR (19del/T790M/C797S), sequence (P00533 with tags, fused parts or gaps DEL746-750/T790M/C797S, form open): as above
BaF3-EGFR (L858R/T790M/C797S), sequence (P00533 whole entry T790M/C797S/L858R): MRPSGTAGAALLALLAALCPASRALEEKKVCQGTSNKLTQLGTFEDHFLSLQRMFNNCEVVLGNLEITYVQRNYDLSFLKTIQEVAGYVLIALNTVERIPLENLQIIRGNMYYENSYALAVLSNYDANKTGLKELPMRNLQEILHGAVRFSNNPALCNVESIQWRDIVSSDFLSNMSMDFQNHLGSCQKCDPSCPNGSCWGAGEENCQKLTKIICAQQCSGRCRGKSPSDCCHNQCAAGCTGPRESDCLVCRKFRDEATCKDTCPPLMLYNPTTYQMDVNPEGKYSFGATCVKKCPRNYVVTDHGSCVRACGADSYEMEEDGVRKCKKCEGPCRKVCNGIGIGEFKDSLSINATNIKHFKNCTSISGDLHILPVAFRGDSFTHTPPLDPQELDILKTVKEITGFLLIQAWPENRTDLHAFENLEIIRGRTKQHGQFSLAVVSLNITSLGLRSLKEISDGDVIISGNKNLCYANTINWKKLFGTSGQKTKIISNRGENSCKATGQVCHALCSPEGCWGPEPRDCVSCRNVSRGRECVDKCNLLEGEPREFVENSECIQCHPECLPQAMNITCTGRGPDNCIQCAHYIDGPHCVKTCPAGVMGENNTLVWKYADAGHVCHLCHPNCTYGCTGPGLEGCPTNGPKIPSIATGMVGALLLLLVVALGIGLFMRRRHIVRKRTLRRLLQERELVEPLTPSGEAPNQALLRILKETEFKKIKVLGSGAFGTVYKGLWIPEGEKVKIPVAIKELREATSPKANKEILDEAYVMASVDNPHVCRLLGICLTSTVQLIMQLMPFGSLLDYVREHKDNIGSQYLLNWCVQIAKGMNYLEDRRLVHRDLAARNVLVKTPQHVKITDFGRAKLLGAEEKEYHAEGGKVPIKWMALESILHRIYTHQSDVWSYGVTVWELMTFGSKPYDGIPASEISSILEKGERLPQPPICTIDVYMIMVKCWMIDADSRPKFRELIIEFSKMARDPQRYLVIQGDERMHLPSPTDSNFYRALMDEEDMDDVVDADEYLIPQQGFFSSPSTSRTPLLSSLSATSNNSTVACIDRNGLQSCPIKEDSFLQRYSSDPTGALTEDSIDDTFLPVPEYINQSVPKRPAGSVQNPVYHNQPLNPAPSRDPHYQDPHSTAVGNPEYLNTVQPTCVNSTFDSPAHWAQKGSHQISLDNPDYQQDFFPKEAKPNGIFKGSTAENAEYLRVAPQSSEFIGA
T2 sequence (P00533 25-1210): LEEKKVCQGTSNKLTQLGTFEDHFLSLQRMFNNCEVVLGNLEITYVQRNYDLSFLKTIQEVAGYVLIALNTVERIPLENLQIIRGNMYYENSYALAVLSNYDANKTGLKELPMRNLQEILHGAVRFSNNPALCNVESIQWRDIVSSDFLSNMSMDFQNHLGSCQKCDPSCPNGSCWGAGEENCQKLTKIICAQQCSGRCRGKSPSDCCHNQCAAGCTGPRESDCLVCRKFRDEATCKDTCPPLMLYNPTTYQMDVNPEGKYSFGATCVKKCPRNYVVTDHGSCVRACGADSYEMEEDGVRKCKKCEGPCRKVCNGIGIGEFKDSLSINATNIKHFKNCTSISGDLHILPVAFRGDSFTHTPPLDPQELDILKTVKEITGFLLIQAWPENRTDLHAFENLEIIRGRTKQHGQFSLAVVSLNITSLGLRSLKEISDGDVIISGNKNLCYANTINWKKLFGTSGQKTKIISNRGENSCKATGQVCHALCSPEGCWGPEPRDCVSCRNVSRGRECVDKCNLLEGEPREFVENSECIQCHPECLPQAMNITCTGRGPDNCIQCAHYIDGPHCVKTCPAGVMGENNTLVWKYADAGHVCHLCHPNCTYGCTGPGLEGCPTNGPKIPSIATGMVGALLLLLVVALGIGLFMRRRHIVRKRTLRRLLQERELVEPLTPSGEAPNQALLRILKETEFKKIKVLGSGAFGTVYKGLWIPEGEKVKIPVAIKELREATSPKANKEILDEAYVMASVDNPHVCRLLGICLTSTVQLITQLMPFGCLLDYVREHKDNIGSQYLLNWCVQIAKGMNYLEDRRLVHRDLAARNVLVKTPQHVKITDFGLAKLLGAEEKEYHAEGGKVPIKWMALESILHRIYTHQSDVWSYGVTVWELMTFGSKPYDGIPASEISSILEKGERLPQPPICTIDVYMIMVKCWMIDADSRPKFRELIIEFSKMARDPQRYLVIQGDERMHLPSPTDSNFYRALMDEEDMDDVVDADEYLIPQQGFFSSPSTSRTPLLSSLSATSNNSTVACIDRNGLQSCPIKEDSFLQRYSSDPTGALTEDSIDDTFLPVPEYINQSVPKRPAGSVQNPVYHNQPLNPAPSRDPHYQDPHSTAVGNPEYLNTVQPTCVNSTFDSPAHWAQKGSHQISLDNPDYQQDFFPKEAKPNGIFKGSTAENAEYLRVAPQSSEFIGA

SMILES | IC50 [1] | GI50 [3] | IC50 [4] | IC50 [5] | IC50 [6] | other results
CCc1cc(N2CCOCC2)c2cc1Nc1nccc(n1)-c1cn(S(=O)(=O)CC)c3cc(ccc13)OCCCn1ccc-2n1 [FBH-3-47, (Z)-4^6-ethyl-1^1-(ethylsulfonyl)-4^4-morpholino-1^1H,5^1H-9-oxa-3-aza-1(3,6)-indole-2(4,2)-pyrimidine-5(4,1)-pyrazol-4(1,3)-benzenacyclononaphane] | 23.3 nM | 0.229 µM | 54.8 nM | 2.23 µM | > 1000 nM | GI50 [2]: 0.327 µM
CCS(=O)(=O)n1cc2c3ccc(cc31)OCCCn1cc(cn1)-c1cc(c(OC)cc1N1CCOCC1)Nc1ncc(Cl)c-2n1 [HC9284, 2^5-Chloro-1^1-ethylsulfonyl-4^6-methoxy-4^4-morpholin-1^1H,5^1H-9-oxa-3-aza-1(3,6)-indole-2(4,2)-pyrimidine-5(4,1)-pyrazole-4(1,3)-benzenacyclononaphane] | 35.1 nM | – | 35.1 nM | – | 154 nM | –
CCS(=O)(=O)n1cc2c3ccc(cc31)OCCCn1cc(cn1)-c1cc(c(OC)cc1N1CCN(C)CC1)Nc1nccc-2n1 [HC9592, (Z)-1^1-ethylsulfonyl-4^6-methoxy-4^4-(4-methylpiperazin-1-yl)-1^1H,5^1H-9-oxa-3-aza-1(3,6)-indole-2(4,2)-pyrimidine-5(4,1) pyrazole-4(1,3)-benzenacyclononaphane] | 2.9 nM | – | 1.4 nM | – | 898 nM | –
CCOc1cc(N2CCOCC2)c2cc1Nc1nccc(n1)-c1cn(S(=O)(=O)CC)c3cc(ccc13)OCCCn1cc-2cn1 [HC9596, (Z)-4^6-ethoxy-1^1-ethylsulfonyl-4^4-morpholino-1^1H,5^1H-9-oxa-3-aza-1(3,6)-indole-2(4,2)-pyrimidine-5(4,1)-pyrazole-4(1,3)-benzenacyclononaphane] | 7.4 nM | 0.371 µM | 11.8 nM | 3.19 µM | 186 nM | GI50 [2]: 0.455 µM
CCS(=O)(=O)n1cc2c3ccc(cc31)OCCCn1cc(cn1)-c1cc(cc(CC(C)C)c1N1CCOCC1)Nc1ncc(Cl)c-2n1 [HC90032, 2^5-chloro-1^1-ethylsulfonyl-4^4-morpholino-4^5-2-methylpropyl-1^1H,5^1H-9-oxa-3-aza-1(3,6)-indole-2(4,2)-pyrimidin-5(4,1)-pyrazol-4(1,3)-benzenacyclononaphane] | 192 nM | – | 343 nM | – | > 1000 nM | –
CCS(=O)(=O)n1cc2c3ccc(cc31)OCCCn1cc(cn1)-c1cc(cc(CCC(C)(C)C)c1N1CCOCC1)Nc1ncc(Cl)c-2n1 [HC90042, 2^5-chloro-4^5-(E)-3,3-dimethylbutyl)-1^1-ethylsulfonyl-4^4-morpholin-1^1H,5^1H-9-oxa-3-aza-1(3,6)-indole-2(4,2)-pyrimidin-5(4,1)-pyrazolol-4 (1,3)-benzenacyclononaphane] | > 1000 nM | – | > 1000 nM | – | > 1000 nM | –
C=CC(=O)Nc1cc(Nc2nccc(-c3cn(C)c4ccccc34)n2)c(OC)cc1N(C)CCN(C)C [Osimertinib, reference compound] | – | – | – | 2.37 µM | – | IC50 [7]: 2.1 µM
CCS(=O)(=O)n1cc2c3ccc(cc31)OCC(C)Cn1cc(cn1)-c1cc(c(OC)cc1N1CCOCC1)Nc1nccc-2n1 (stereo not shown) [WQX-1-80, (Z)-1^1-(ethylsulfonyl)-4^6-Methoxy-7-methyl-4^4-morpholino-1^1H,5^1H-9-oxa-3-aza-1(3,6)-indole-2(4,2)-pyrimidin-5(4,1)-pyrazol-4(1,3)-benzenacyclononaphane] | 23.3 nM | 0.311 µM | 53.2 nM | 1.87 µM | > 1000 nM | GI50 [2]: 0.734 µM
CCS(=O)(=O)n1cc2c3ccc(cc31)OC(C)CCn1cc(cn1)-c1cc(c(OC)cc1N1CCOCC1)Nc1nccc-2n1 (stereo not shown) [WQX-1-86, (Z)-1^1-(ethylsulfonyl)-4^6-methoxy-8-methyl-4^4-morpholino-1^1H,5^1H-9-oxa-3-aza-1(3,6)-indole-2(4,2)-pyrimidin-5(4,1)-pyrazol-4(1,3)-benzenacyclononaphane] | 8.2 nM | 0.465 µM | 12.6 nM | 2 µM | > 1000 nM | –
CCS(=O)(=O)n1cc2c3ccc(cc31)OCC1(CC1)Cn1cc(cn1)-c1cc(c(OC)cc1N1CCOCC1)Nc1nccc-2n1 [WQX-1-87, (Z)-1′-(ethylsulfonyl)-6′-methoxy-4′-morpholino spiro[cyclopropane-7′-9-oxa-3-aza-1(3,6)-indole-2(4,2)-pyrimidin-5(4,1)-pyrazol-4(1,3)-benzenacyclononaphane]] | 33 nM | – | 63.3 nM | – | > 1000 nM | –
CCS(=O)(=O)n1cc2c3ccc(cc31)OCCCn1cc(cn1)-c1cc(c(OC)cc1CN1CCOCC1)Nc1nccc-2n1 [WQX-2-35, (Z)-1^1-(ethylsulfonyl)-4^6-methoxy-4^4-(morpholinomethyl)-1^1H,5^1H-9-oxa-3-aza-1(3,6)-indole-2(4,2)-pyrimidine-5(4,1)-pyrazole-4(1,3)-benzocyclononane] | 1 nM | – | 14.1 nM | – | 141 nM | –
CCS(=O)(=O)n1cc2c3ccc(cc31)OCCCCCCOc1cc(ccc1N1CCOCC1)Nc1ncc(Cl)c-2n1 [reference compound] | 9 nM | – | 14.4 nM | – | 190 nM | –
CCS(=O)(=O)n1cc2c3ccc(cc31)OCCCCCCOc1cc(c(C)cc1N1CCOCC1)Nc1ncc(Cl)c-2n1 [reference compound] | – | – | – | – | – | Cmax ([8]; IV 1 mg/kg): 2420 ± 165 ng/mL; clearance ([8]; IV 1 mg/kg): 16.2 ± 1.4 mL/min/kg; half-life ([8]; IV 1 mg/kg): 1.35 ± 0.18 h; Cmax ([8]; PO 5 mg/kg): 135 ng/mL; half-life ([8]; PO 5 mg/kg): 2.57 h; bioavailability ([8]; PO 5 mg/kg, read-out: F (oral bioavailability)): 11.9%
